Reference: patent US20220289657A1, “COMPOSITION FOR PREVENTING OR TREATING BACTERIAL INFECTIOUS DISEASE COMPRISING 4-GINGEROL DERIVATIVE COMPOUND AS ACTIVE INGREDIENT” (KOREA UNIVERSITY RESEARCH AND BUSINESS FOUNDATION, SEJONG …, priority 2019, published 2022)

Assays:
Pseudomonas aeruginosa [1] = test: Bacterial growth under static condition (OD 595 nm of suspended culture); format: cell-based
Summary of the method: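 Overnight P. aeruginosa culture diluted 1:20 in AB medium (pH 7.5, 1% glucose) with compound at 0–100 μM, held static in borosilicate bottles at 37° C. for 24 hours. Growth read as OD 595 nm of suspended culture; attached biofilm stained with 0.1% crystal violet, ethanol-eluted, read at 545 nm.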

Pseudomonas aeruginosa [2] = test: EPS analysis of drip-flow biofilm cells (carbohydrates, proteins); format: cell-based; settings: 10 μM
Procedure: EPS analysis was carried out with the biofilm cells attached to the slides after the operation of the drip-flow reactor. The biofilm cells that were centrifuged were re-suspended with 0.01M KCl, and for the analysis of carbohydrates and proteins, the cells were disrupted with a sonicator (VCX 750, SONICS, Newtown, Conn., USA) for 5 seconds at a level of 3.5 Hz, followed by stopping for 5 seconds, which was repeated 4 times. A supernatant of the cell-disrupted suspension was filtered through a 0.22 μm membrane filter (Millex filter, Carl Roth, Karlsruhe, Germany). For protein analysis, a mixture containing 40 μL of the filtrate and 200 μL of a Lowry reagent (L3540, Sigma-Aldrich) was incubated at room temperature for 10 minutes. Afterward, 20 μL of a Folin-Ciocalteu reagent (Sigma-Aldrich) was added and incubated at room temperature for 30 minutes, followed by measuring OD at 750 nm using a multimode plate reader. A protein amount was quantified at OD 750 nm or OD 595 nm. For carbohydrate analysis, a mixture containing 50 μL of the filtrate and 150 μL of 99.9% sulfuric acid was incubated at room temperature for 30 minutes. Afterward, 5% phenol was added, followed by incubation at 90° C. for 5 minutes. OD was measured at 490 nm using a multimode plate reader. The amount of carbohydrates was quantified at OD 490 nm or OD 595 nm.

[3] = test system: rhlR variant of P. aeruginosa; test: Pyocyanin production assay, rhlR variant; format: cell-based, Pseudomonas aeruginosa; settings: 10 μM, FIG. 9C
Procedure: P. aeruginosa cultured overnight with a positive control or compound (0-10 μM) was inoculated in an AB medium, incubated for 24 hours at 37° C., and centrifuged for 10 minutes at 10,000 rpm. To extract pyocyanin, the supernatant was reacted with 50% trifluoroacetic acid (TFA, Sigma-Aldrich) for 1 hour at 37° C. The reacted supernatant was centrifuged for 10 minutes at 10,000 rpm, and filtered through a 0.22-μm filter. […] Specific HPLC conditions are as follows: mobile phase deionized water; TFA (99:1); injection volume:10 μL; temperature: 25° C.; and flow rate: 0.5 mL/min. The retention time of pyocyanin (Sigma-Aldrich) is 20 minutes. To measure a pyocyanin amount, when the retention time was 20 minutes, the height of an analysis peak was detected.

[4] = test system: Pseudomonas aeruginosa-injected T. molitor larvae; test: Mortality of Pseudomonas aeruginosa-injected T. molitor larvae; format: in vivo, Tenebrio molitor; settings: 10 μM; 20 days of incubation; FIG. 10
Procedure: The mortality of Tenebrio molitor (T. molitor) larvae was measured with a positive control or compound (0-10 μM) by the method used as in previous research. Overnight-cultured P. aeruginosa (OD 595 nm=1.0) was centrifuged for 10 minutes at 10,000 rpm. The supernatant was filtered through a 0.22-μm filter, and injected into the larvae using a syringe needle. The larvae were stored in a petri dish for 20 days at 25° C. The mortality of the larvae was measured every 5 days.

For CCCC(=O)C#Cc1ccc(F)c(F)c1 [Compound 30, 1-(3,4-Difluorophenyl)hex-1-yn-3-one], the “effect on cell growth (in words)” value (Pseudomonas aeruginosa [1]; 100 PM [sic] (100 μM)) was “no effect”, the activity at 10 µM (Pseudomonas aeruginosa [1]; Pseudomonas aeruginosa, 24 h, read-out: Relative biological activity (%) Bacterial growth 10) was 103% and the activity at 100 µM (Pseudomonas aeruginosa [1]; Pseudomonas aeruginosa, 24 h, read-out: Relative biological activity (%) Bacterial growth 100) was 99%. For the same compound, the “reduction of the amount of carbohydrates in EPS” value (Pseudomonas aeruginosa [2]; FIG. 8B) was 39%, the “reduction of the amount of proteins in EPS” value (Pseudomonas aeruginosa [2]; FIG. 8C) was 72% and the “virulence factor (pyocyanin) production vs control of the rhlR variant” value [3] was “no difference”. The “larvae survived to the end of the incubation” value [4] was “approximately 80%”.
